The values that follow come from a melting point compilation (Tetko et al.; mined from patent text by program, amines drawn as free bases though some values may be those of a salt).

The compound `CCOC(=O)CCNc1ncccc1NC(=O)c1cccc(Cl)c1` yielded a melting point of 111 to 112 °C.

In turn, `O=C(CCl)Nc1ccc2c(c1NC(=O)c1ccc(C(F)(F)F)cc1)C(=O)c1ccccc1C2=O` yielded a melting point of 203 to 204 °C.

For the compound `CC(C)(C)c1ccc(-c2nc(NC(=O)C3CCCC3)sc2-c2ccncc2)cc1`, the melting point was in the range of 309 to 311 °C.

Take `O=C(O)C(CCc1ccccc1)NS(=O)(=O)c1ccc2c(c1)S(=O)(=O)c1ccccc1O2` (stereo not drawn): the melting point lay within 170 to 174 °C.

With `CCCCOC(=O)CNC(=O)c1ncccc1OCc1ccccc1`, the melting point lay within 55 to 58 °C.

In turn, `CN1Cc2c(-c3nc(CNCc4ccccc4)no3)ncn2-c2ccccc2C1=O` registered a melting point of 195 to 198 °C.

The compound `O=C1c2c(oc3ccccc23)-c2ccc(O)c3cccc1c23` gave a melting point of 374 °C.

For `O=C(O)c1cc2c3ccccc3n(-c3ccccc3)c2s1`, the melting point fell in the range of 206 to 207 °C.

`CCOC(=O)C1=C2Nc3ccccc3N2CC1`: the melting point lay in the range of 269 to 271 °C.

Compound `COCCOCCOCCn1c2ccc(C=O)cc2c2cc(C=O)ccc21` yielded a melting point of 108 to 109 °C.

With `Nc1c(N=Nc2ccc(Cl)cc2)ccc2c(S(N)(=O)=O)cccc12`, the melting point was determined as 258 °C.

Compound `Cc1noc(NC(=O)N2CCN(c3ccnc(-c4cccc(F)c4F)n3)CC2)c1C` had a melting point of 209 to 210 °C.

`N#Cc1c(-c2cccc(N)c2)cc(-c2ccccc2O)nc1NC(=O)c1ccc(Cl)s1` came in with a melting point of 259 to 260 °C.

Compound `COC(=O)C=C1SC(Nc2c(Cl)cccc2Cl)=NC1=O` gave a melting point of 189 to 190 °C.

`C#Cc1cccc(Nc2ncnc3cc(OCCOC(C)=O)c(OCCOC(C)=O)cc23)c1` showed a melting point of 137 to 138 °C.

As to `CC(C)N(CCN1C(=O)/C(=N/NC(=O)NCc2ccccc2)c2ccccc21)C(C)C`, the melting point was in the range of 164 to 165 °C.

Take `COC(=O)c1c(C)nc(C)c(C(=O)OCC2CCCO2)c1-c1ccccc1[N+](=O)[O-]` (stereo not drawn): the melting point was 69 to 70 °C.

`CC1(C)CC(c2ccccn2)c2cc(Cl)ccc2O1` (stereo not drawn) returned a melting point of 124 to 125 °C.

Take `CC(=O)Nc1ccc2c(c1)nc(/C=C/c1ccccc1)n2-c1ccccn1`: the melting point lay in the range of 105 to 107 °C.

As to `Cc1ccccc1-n1c(C)nc2cscc2c1=O`, the melting point lay within 122 to 123 °C.

As to `Clc1nc(N2CCOCC2)c2nnn(C3CCOCC3)c2n1`, the melting point is 142 °C.

In turn, `COC(=O)c1ccc(-c2cc(C)c3[nH]c(=O)ccc3c2)cc1` showed a melting point of 293 °C.

Compound `C=C(C)C(=O)OC1=CC(C(=O)O)C(O)(C(C)=O)C=C1` (stereo not drawn) returned a melting point of 150 °C.

In the case of `CC(Cl)(Cl)C(NC(=O)c1ccc(Cl)cc1)NC(=NC#N)Nc1ccc(C(F)(F)F)nc1` (stereo not drawn), the melting point was 204 to 205 °C.

`COc1c(C)c(C(=O)c2ccc3c(c2)c(=O)n(CC(=O)N(C)C)c(=O)n3C)n2ccccc12`: the melting point came to 276 °C.

On to `COc1ccc(S(C)(=O)=O)cc1-c1nc2ccc(C(C)(C)CNC=O)cc2[nH]1`, for which the melting point lay within 235 to 236 °C.

For the compound `CCOC(=O)[C@H](CSC(=O)c1ccccc1)NC(=O)c1ccccc1`, the melting point turned out to be 81 °C.

Compound `C=CC[C@H](C(N)=O)[C@@H](CC(C)C)C(=O)NC1N=C(N2CCCCCC2)c2ccccc2N(C)C1=O` (stereo partly drawn) displayed a melting point of 232 to 237 °C.

Compound `NC(=O)N1CCC(O[N+](=O)[O-])CC1` displayed a melting point of 110 to 111 °C.

`Cc1nnc(N2C(=O)C(O)=C(C(=O)c3ccc(C(C)C)cc3)C2c2ccc(C(F)(F)F)cc2)s1` (stereo not drawn) yielded a melting point of 257 °C.

In turn, `Cc1cccc(-c2ccc(S(=O)(=O)N3c4ccccc4CC3C(=O)NCc3ccc(CC(=O)O)cc3)cc2)c1` (stereo not drawn) registered a melting point of 118 to 120 °C.

In turn, `COc1ccc(C)cc1NC(=O)Nc1ccc(N2CCN(C(N)=O)CC2)cc1` registered a melting point of 136 °C.

In turn, `O=C(O)c1cc(OCc2ccccc2)cc(OCc2ccccc2)c1` displayed a melting point of 211 to 213 °C.

Consider `CCOc1cc(F)cc2c1c(CCN(C)C)cn2CC`, for which the melting point is 77.1 to 78.2 °C.

Compound `CCn1cc(-c2nc(C#N)c(N)nc2-c2ccccc2)ccc1=O` gave a melting point of 193 to 199 °C.

The compound `O=S(=O)(c1c(-c2ccc(Cl)cc2)[nH]c(Br)c1Br)C(F)(F)C(F)F` showed a melting point of 138 to 141 °C.

Take `COc1cc(C(F)(F)F)nn1-c1ccc(NC(=O)c2snnc2C)cc1`: the melting point was 159 to 160 °C.

Regarding `CCNC(=O)c1sc(C)cc1[Si](C)(C)C`, the melting point was in the range of 112 to 115 °C.

`CC(C)(C)CC(C)(C)c1cc(Cc2cc(C(C)(C)CC(C)(C)C)cc(C(C)(C)CC(C)(C)C)c2O)c(O)c(-n2nc3ccccc3n2)c1` displayed a melting point of 174 °C.

`CS(=O)(=O)c1cc2c(cc1O)CCNCC2` yielded a melting point of 241 to 242 °C.

On to `COCOc1cc2c(c3ccccc13)Nc1ccccc1S2`, for which the melting point was determined as 103 °C.

In turn, `Cc1cc(N2CCN(c3ccccc3)CC2)c(C#N)c(Cl)n1` had a melting point of 139 to 140 °C.

For `CCCOC(=O)c1cc(NC(=O)c2ccccc2O)cc(Br)c1O`, the melting point was in the range of 198 to 200 °C.

`Cc1ccc(COc2cccnc2NC(=N)Nc2ccc(Cl)cc2)cc1`: the melting point fell in the range of 174 to 175 °C.

The compound `CN(C)c1ccc(S(=O)(=O)N2CC(OC(=O)C(C)(C)C)CC2=O)cc1` (stereo not drawn) registered a melting point of 117 to 118 °C.

`CCOC(=O)[C@H](Cc1ccc(Nc2nccc3ccncc23)cc1)NC1=CC(=O)C12CCOCC2`: the melting point came to 112 °C.

In the case of `COc1ccc(C(=O)c2ccc(OCc3ccccc3)nc2)c(OC(C)(C)C(=O)OC(C)(C)C)c1`, the melting point is 58 to 60 °C.

`CCNC(=O)Nc1ccc(Oc2ccc3nc(COc4ccc(CC5SC(=O)NC5=O)cc4)n(C)c3c2)cc1` (stereo not drawn) returned a melting point of 227 to 230 °C.

As to `COC(=O)C1=C(O)c2c(c3ccccc3n2C)S(=O)(=O)N1C`, the melting point lay within 189 to 190 °C.

`CC[C@H](C)[C@H](OCc1ccccc1)[C@H]1[C@H]([N+](=O)[O-])[C@H](C2CCCCC2)N[C@@H]1C(=O)O` yielded a melting point of 194 to 196 °C.

Compound `Cc1nc(-c2ccc3c(c2)OCC32C(=O)N(Cc3ccccn3)c3ccccc32)no1` (stereo not drawn) had a melting point of 147 to 148 °C.

The compound `CSc1ccc(C(=O)NCc2ccc3c(c2)C(=O)N(C2(C)CCC(=O)NC2=O)C3=O)cc1` (stereo not drawn) registered a melting point of 218 to 220 °C.

As for `O=C1SC(=Cc2cccs2)C(=O)N1CCCCSc1cccc2nccn12`, the melting point lay within 116 to 117 °C.

`COC(=O)[C@@H]1C[C@H](C(=O)OC(C)(C)C)N(C(=O)CNC(=O)Nc2cccc(C)c2)[C@@H]1c1ccccc1` (racemic) had a melting point of 130 °C.

`CCCSCCCCCCCCCC(=O)O` came in with a melting point of 42 to 43.5 °C.

With `CCCC1CCCNC1=O` (stereo not drawn), the melting point lay within 75 to 76 °C.

The compound `O=C1[C@@H]2Cc3ccccc3CN2C(=O)N1c1cc(Cl)cc(Cl)c1` yielded a melting point of 243 °C.

Compound `CC(C)n1nc(-c2cc(C(N)=O)c(=O)[nH]c2-c2ccccc2)ccc1=O` registered a melting point of over 250 °C.

Compound `COc1ccccc1C(=O)Nc1ccc(Cl)cc1` had a melting point of 56.1 to 58.7 °C.

With `CCCc1ccc(-c2cc(F)c(-c3ccc(CCC)s3)c(F)c2)cc1`, the melting point is 64 °C.

With `CC(=O)Nc1ccc(OCC2CCCC(OC(CCn3ccnc3)c3ccc(F)cc3)O2)cc1` (stereo not drawn), the melting point lay in the range of 133 to 135 °C.

Regarding `O=C(CC(=O)C1CC1)c1ccncn1`, the melting point is 81 to 84 °C.

Consider `COc1cc2ncnc(N3CCC(O)(CCN4C=CC(C)=NS4(=O)=O)CC3)c2cc1OC`, for which the melting point was 203 to 204 °C.

As to `CC(=O)Nc1ccc(SCC(OS(C)(=O)=O)C(C)(C)C)cc1` (stereo not drawn), the melting point is 123 to 124 °C.

Consider `COc1c(C)cc(C)cc1C(=O)O`, for which the melting point was in the range of 97 to 98 °C.

Compound `O=C(Nc1ccc(C2=NOC(c3cc(Cl)cc(Cl)c3)(C(F)(F)F)C2)cc1)C(F)(F)F` (stereo not drawn) registered a melting point of 45 to 52 °C.

As for `c1ccc2c(c1)cc1cnc(Nc3ccc(N4CCOCC4)cc3)nn12`, the melting point fell in the range of 205 to 210 °C.

The compound `CCCC1=C(C#N)C(c2ccccc2Cl)c2c(n[nH]c2-c2ccco2)N1` (stereo not drawn) registered a melting point of 253 °C.

Take `CCC1C(=O)NC1C=COC(C)=O` (stereo not drawn): the melting point was 102 °C.

Take `C#CCN1C(=O)CCC1C(N)=O` (stereo not drawn): the melting point is 145 to 147 °C.

Compound `Cn1ccnc1C=NO` registered a melting point of 170 to 172 °C.

In turn, `CCCCOC(=O)c1c(N)c2cccnc2n(CC)c1=O` displayed a melting point of 117 to 120 °C.

Regarding `O=[N+]([O-])c1ccccc1SN1CCN(C2CC2)CC1`, the melting point was 100 to 102 °C.

`CC1(CCCOc2ccc([N+](=O)[O-])c(C=C3NC(=O)NC3=O)c2)OCCO1` showed a melting point of 175 to 180 °C.

With `CCOC(=O)c1cc2c3n(ccc-2n1)C(Br)C=N3` (stereo not drawn), the melting point lay within 280 to 282 °C.

`COc1ccc(-c2cc(C)c(N)c(CO)c2)cn1` came in with a melting point of 80 to 82 °C.

The compound `O=C(Nc1ccc(OCC2CCCO2)c([N+](=O)[O-])c1)OCCCl` (stereo not drawn) registered a melting point of 84 to 86 °C.

Turning to `COc1nc2cc([N+](=O)[O-])c(C)c(C(=O)NCCC(=O)OC(C)(C)C)c2nc1OC`, the melting point lay in the range of 140 to 142 °C.

For the compound `CN(C)C=C(C#N)CC#N`, the melting point came out at 49 °C.

For `COc1cc(C(=O)O)ccc1Cc1cccc2ccc(CCCC(=O)N3CCOCC3)cc12`, the melting point was in the range of 160 to 161 °C.

`CCOC(=O)CCc1c(OC)cncc1OC` had a melting point of 66 to 67 °C.

Turning to `Cc1cc(C)c(CNc2cccc(S(=O)(=O)O)c2)c(C)c1`, the melting point was over 275 °C.

In turn, `CCOC(=O)c1sc(NC(C)=O)nc1CCl` gave a melting point of 164 to 165 °C.

`O=C(NCc1cccc(C(F)(F)F)c1)c1ccc2n1Cc1ccccc1N(C(=O)CSc1ccc(Br)cc1)C2` registered a melting point of 102 °C.

With `COc1cc(Nc2c(C#N)cnc3cc(-c4ccc(C=O)cc4)sc23)c(Cl)cc1Cl`, the melting point lay within 261 to 262 °C.

`Cc1ncc(C(=O)NCc2cc(C(F)(F)F)cc(C(F)(F)F)c2)c(-c2ccccc2Br)n1` displayed a melting point of 138 °C.

Take `CC1(C)OC(=O)C2=C(CCCCCC2)O1`: the melting point was 73.5 to 74.5 °C.

Compound `COc1ccc(C2(C#N)CCC(=O)C(C(N)=O)C2)cc1OCCl` (stereo not drawn) showed a melting point of 154 to 155 °C.

The term melting point denotes the temperature of the solid-liquid transition.
